# Target: T1, PIP4K2C (Homo sapiens, UniProt Q8TBX8)
# T1 sequence (Q8TBX8 1-421): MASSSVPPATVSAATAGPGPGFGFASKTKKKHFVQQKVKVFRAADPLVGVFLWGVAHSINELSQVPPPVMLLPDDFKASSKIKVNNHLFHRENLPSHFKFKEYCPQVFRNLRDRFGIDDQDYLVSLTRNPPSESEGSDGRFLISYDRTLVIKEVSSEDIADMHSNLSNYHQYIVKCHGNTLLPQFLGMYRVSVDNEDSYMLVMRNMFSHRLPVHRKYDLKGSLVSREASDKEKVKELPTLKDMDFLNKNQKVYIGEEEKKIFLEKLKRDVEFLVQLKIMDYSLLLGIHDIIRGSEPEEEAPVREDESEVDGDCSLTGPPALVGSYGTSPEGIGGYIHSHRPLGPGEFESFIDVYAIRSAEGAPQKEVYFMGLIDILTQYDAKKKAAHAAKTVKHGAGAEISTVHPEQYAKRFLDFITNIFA
# Assay: HiBiT PIP4K2C degradation assay in MOLT-4 cells (endogenous PIP4K2C C-terminally tagged with HiBiT)
# Assay type: cell-based
# Set-up: untagged in primary human PBMCs and monocyte-derived dendritic cells
# Settings: 6 hours of incubation time, rather than 24 hours; MOLT-4, top concentration 10 micromolar; read-out: HiBIT-degradation MOLT4 PIP4k2C DC50 (6 hours, marked *)
# Method in brief: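 MOLT-4 knock-in line, HiBiT on PIP4K2C C-terminus; 22,500 cells/well; 10-pt 3-fold titration from 10 micromolar, n=2; 24 h or 6 h, 37 C, 5% CO2; Nano-Glo HiBiT lytic luminescence; DC50 via Hill equation.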
row,Compound,DC50 [nM]
1,"O=C1CCC(Nc2ccc(N3CCC(N4CCC(NC(=O)[C@H]5CC[C@H](Nc6ncc(F)c(-c7cccc(N8CCCCC8=O)c7)n6)CC5)CC4)C(F)(F)C3)c(F)c2)C(=O)N1 (stereo partly drawn) [Compound 494, trans-N-(1′-(4-((2,6-dioxopiperidin-3-yl)amino)-2-fluorophenyl)-3′,3′-difluoro-[1,4′-bipiperidin]-4-yl)-4-((5-fluoro-4-(3-(2-oxopiperidin-1-yl)phenyl)pyrimidin-2-yl)amino)cyclohexane-1-carboxamide]",< 500
2,"O=C1CCC(Nc2ccc(N3CCC(N4CCC(NC(=O)[C@H]5CC[C@H](Nc6ncc(F)c(-c7cccc(N8CCCOC8=O)c7)n6)CC5)CC4)C(F)(F)C3)c(F)c2)C(=O)N1 (stereo partly drawn) [Compound 495, trans-N-(1′-(4-((2,6-dioxopiperidin-3-yl)amino)-2-fluorophenyl)-3′,3′-difluoro-[1,4′-bipiperidin]-4-yl)-4-((5-fluoro-4-(3-(2-oxo-1,3-oxazinan-3-yl)phenyl)pyrimidin-2-yl)amino)cyclohexane-1-carboxamide]",< 500
3,"O=C1CCC(Nc2ccc(N3CCC(N4CCC(NC(=O)[C@H]5CC[C@H](Nc6ncc(F)c(-c7cccc(N8CCOCC8=O)c7)n6)CC5)CC4)C(F)(F)C3)c(F)c2)C(=O)N1 (stereo partly drawn) [Compound 496, trans-N-(1′-(4-((2,6-dioxopiperidin-3-yl)amino)-2-fluorophenyl)-3′,3′-difluoro-[1,4′-bipiperidin]-4-yl)-4-((5-fluoro-4-(3-(3-oxomorpholino)phenyl)pyrimidin-2-yl)amino)cyclohexane-1-carboxamide]",< 500
4,"O=C1CCC(Nc2ccc(N3CCC(N4CCC(C(=O)N[C@H]5CC[C@H](Nc6ncc(F)c(-c7cccc(C8CC8)c7)n6)CC5)CC4)C(F)(F)C3)c(F)c2)C(=O)N1 (stereo partly drawn) [Compound 497, trans-N-(4-((4-(3-cyclopropylphenyl)-5-fluoropyrimidin-2-yl)amino)cyclohexyl)-1′-(4-((2,6-dioxopiperidin-3-yl)amino)-2-fluorophenyl)-3′,3′-difluoro-[1,4′-bipiperidine]-4-carboxamide]",< 500
5,"O=C1CCC(Nc2ccc(N3CCC(N4CCC(C(=O)N[C@H]5CC[C@H](Nc6ncc(F)c(-c7cccc(N8CCCCC8)c7)n6)CC5)CC4)C(F)(F)C3)c(F)c2)C(=O)N1 (stereo partly drawn) [Compound 498, trans-1′-(4-((2,6-dioxopiperidin-3-yl)amino)-2-fluorophenyl)-3′,3′-difluoro-N-(4-((5-fluoro-4-(3-(piperidin-1-yl)phenyl)pyrimidin-2-yl)amino)cyclohexyl)-[1,4′-bipiperidine]-4-carboxamide]",< 500
6,"O=C1CCC(Nc2ccc(N3CCC(N4CCC(C(=O)N[C@H]5CC[C@H](Nc6ncc(F)c(-c7cccc(N8CCCCC8=O)c7)n6)CC5)CC4)C(F)(F)C3)c(F)c2)C(=O)N1 (stereo partly drawn) [Compound 499, trans-1′-(4-((2,6-dioxopiperidin-3-yl)amino)-2-fluorophenyl)-3′,3′-difluoro-N-(4-((5-fluoro-4-(3-(2-oxopiperidin-1-yl)phenyl)pyrimidin-2-yl)amino)cyclohexyl)-[1,4′-bipiperidine]-4-carboxamide]",< 500
7,"O=C1CCC(Nc2ccc(N3CCC(N4CCC(C(=O)N[C@H]5CC[C@H](Nc6ncc(F)c(-c7cccc(N8CCCOC8=O)c7)n6)CC5)CC4)C(F)(F)C3)c(F)c2)C(=O)N1 (stereo partly drawn) [Compound 500, trans-1′-(4-((2,6-dioxopiperidin-3-yl)amino)-2-fluorophenyl)-3′,3′-difluoro-N-(4-((5-fluoro-4-(3-(2-oxo-1,3-oxazinan-3-yl)phenyl)pyrimidin-2-yl)amino)cyclohexyl)-[1,4′-bipiperidine]-4-carboxamide]",< 500
8,"O=C1CCC(Nc2ccc(N3CCC(N4CCC(C(=O)N[C@H]5CC[C@H](Nc6ncc(F)c(-c7cccc(N8CCOCC8=O)c7)n6)CC5)CC4)C(F)(F)C3)c(F)c2)C(=O)N1 (stereo partly drawn) [Compound 501, trans-1′-(4-((2,6-dioxopiperidin-3-yl)amino)-2-fluorophenyl)-3′,3′-difluoro-N-(4-((5-fluoro-4-(3-(3-oxomorpholino)phenyl)pyrimidin-2-yl)amino)cyclohexyl)-[1,4′-bipiperidine]-4-carboxamide]",< 500
9,"O=C1CCC(Nc2ccc(N3CCC(N4CCC(C(=O)N[C@H]5CC[C@H](Nc6ncc(F)c(-c7cccc(C8CC8)c7)n6)CC5)CC4)C(F)C3)c(F)c2)C(=O)N1 (stereo partly drawn) [Compound 502, N-((1r,4r)-4-((4-(3-cyclopropylphenyl)-5-fluoropyrimidin-2-yl)amino)cyclohexyl)-1′-(4-((2,6-dioxopiperidin-3-yl)amino)-2-fluorophenyl)-3′-fluoro-[1,4′-bipiperidine]-4-carboxamide]",< 500
10,"O=C1CCC(Nc2ccc(C3CCN([C@H]4CC[C@H](NC(=O)[C@H]5CC[C@H](Nc6ncc(F)c(-c7cccc(C8CC8)c7)n6)CC5)CC4)CC3)c(F)c2)C(=O)N1 (stereo partly drawn) [Compound 503, trans-4-((4-(3-cyclopropylphenyl)-5-fluoropyrimidin-2-yl)amino)-N-(trans-4-(4-(4-((2,6-dioxopiperidin-3-yl)amino)-2-fluorophenyl)piperidin-1-yl)cyclohexyl)cyclohexane-1-carboxamide]",< 500
11,"O=C1CCC(Nc2ccc(N3CCC(N4CCC(C(=O)N[C@H]5CC[C@H](Nc6ncc(F)c(-c7cccc(C8CC8)c7)n6)CC5)CC4)CC3)c(F)c2)C(=O)N1 (stereo partly drawn) [Compound 504, trans-N-(4-((4-(3-cyclopropylphenyl)-5-fluoropyrimidin-2-yl)amino)cyclohexyl)-1′-(4-((2,6-dioxopiperidin-3-yl)amino)-2-fluorophenyl)-[1,4′-bipiperidine]-4-carboxamide]",< 500
12,"Cn1nc(C2CCC(=O)NC2=O)c2ccc(N3CCN(CCN4CCC(C(=O)N[C@H]5CC[C@H](Nc6ncc(F)c(-c7cccc(-n8ccccc8=O)c7)n6)CC5)CC4)CC3)cc21 (stereo partly drawn) [Compound 506, trans-1-(2-(4-(3-(2,6-dioxopiperidin-3-yl)-1-methyl-1H-indazol-6-yl)piperazin-1-yl)ethyl)-N-((1r,4r)-4-((5-fluoro-4-(3-(2-oxopyridin-1(2H)-yl)phenyl)pyrimidin-2-yl)amino)cyclohexyl)piperidine-4-carboxamide]",< 500
13,"Cn1nc(C2CCC(=O)NC2=O)c2ccc(C3CCN([C@H]4CC[C@H](CC(=O)N[C@H]5CC[C@H](Nc6ncc(F)c(-c7cccc(-n8ccccc8=O)c7)n6)CC5)CC4)CC3)cc21 (stereo partly drawn) [Compound 507, trans-2-((1r,4R)-4-(4-(3-(2,6-dioxopiperidin-3-yl)-1-methyl-1H-indazol-6-yl)piperidin-1-yl)cyclohexyl)-N-((1r,4R)-4-((5-fluoro-4-(3-(2-oxopyridin-1(2H)-yl)phenyl)pyrimidin-2-yl)amino)cyclohexyl)acetamide]",< 500
14,"O=C1CCC(Nc2ccc(N3CCN([C@H]4CC[C@H](NC(=O)[C@H]5CC[C@H](Nc6ncc(F)c(-c7cccc(N8CCOCC8=O)c7)n6)CC5)CC4)CC3)c(F)c2)C(=O)N1 (stereo partly drawn) [Compound 508, trans-N-(trans-4-(4-(4-((2,6-dioxopiperidin-3-yl)amino)-2-fluorophenyl)piperazin-1-yl)cyclohexyl)-4-((5-fluoro-4-(3-(3-oxomorpholino)phenyl)pyrimidin-2-yl)amino)cyclohexane-1-carboxamide]",< 500
15,"O=C1CCC(Nc2ccc(N3CCN([C@H]4CC[C@H](NC(=O)[C@H]5CC[C@H](Nc6ncc(F)c(-c7cccc(C(=O)N8CC[C@H](O)C8)c7)n6)CC5)CC4)CC3)c(F)c2)C(=O)N1 (stereo partly drawn) [Compound 509, trans-N-(trans-4-(4-(4-((2,6-dioxopiperidin-3-yl)amino)-2-fluorophenyl)piperazin-1-yl)cyclohexyl)-4-((5-fluoro-4-(3-((S)-3-hydroxypyrrolidine-1-carbonyl)phenyl)pyrimidin-2-yl)amino)cyclohexane-1-carboxamide]",< 500
16,"O=C1CCC(Nc2ccc(C3CCN([C@H]4CC[C@H](NC(=O)[C@H]5CC[C@H](Nc6ncc(F)c(-c7cccc(C(=O)N8CC[C@H](O)C8)c7)n6)CC5)CC4)CC3)c(F)c2)C(=O)N1 (stereo partly drawn) [Compound 510, trans-N-(trans-4-(4-(4-((2,6-dioxopiperidin-3-yl)amino)-2-fluorophenyl)piperidin-1-yl)cyclohexyl)-4-((5-fluoro-4-(3-((S)-3-hydroxypyrrolidine-1-carbonyl)phenyl)pyrimidin-2-yl)amino)cyclohexane-1-carboxamide]",< 500
17,"O=C1CCC(Nc2ccc(C3CCN([C@H]4CC[C@H](C(=O)N[C@H]5CC[C@H](Nc6ncc(F)c(-c7cccc(C(=O)N8CC[C@H](O)C8)c7)n6)CC5)CC4)CC3)c(F)c2)C(=O)N1 (stereo partly drawn) [Compound 511, trans-4-(4-(4-((2,6-dioxopiperidin-3-yl)amino)-2-fluorophenyl)piperidin-1-yl)-N-(trans-4-((5-fluoro-4-(3-((S)-3-hydroxypyrrolidine-1-carbonyl)phenyl)pyrimidin-2-yl)amino)cyclohexyl)cyclohexane-1-carboxamide]",< 500
18,"Cn1nc(N2CCC(=O)NC2=O)c2cc(F)c(C3CCN([C@H]4CC[C@H](C(=O)N[C@H]5CC[C@H](Nc6ncc(F)c(-c7cccc(-n8ccccc8=O)c7)n6)CC5)CC4)CC3)cc21 [Compound 512, trans-4-(4-(3-(2,4-dioxotetrahydropyrimidin-1(2H)-yl)-5-fluoro-1-methyl-1H-indazol-6-yl)piperidin-1-yl)-N-(trans-4-((5-fluoro-4-(3-(2-oxopyridin-1(2H)-yl)phenyl)pyrimidin-2-yl)amino)cyclohexyl)cyclohexane-1-carboxamide]",< 500

# — patent US20260355196A1, “INHIBITORS AND DEGRADERS OF PIP4K PROTEIN” (Larkspur Biosciences, Inc., priority 2023, published 2026)
